The results in this text go back to the supplement of paper PMC11061612.

Molecules are shown by their SMILES.

One assay concerns EW-24 (Ewing's Sarcoma). Nature of the assay: Bliss excess, mean over the matrix (fraction); higher = more synergy. The gist of the method:
(§1)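 Bliss excess equals the observed combination effect minus the expected value EA + EB − EA·EB, where EA and EB are the effects of each agent alone. Combination Emax is the second-highest inhibition within the matrix. Inhibition was scaled from CellTiter-Glo 2.0 luminescence, with 0 set by vehicle wells and 1 by blank wells, after 72 hours of two-drug dosing of cells plated in 1536-well plates.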

The subject of assay [1] is JVM-3 (B-Cell Non-Hodgkin's Lymphoma). The description is as above. The gist of the method: as §1
Assay [2] concerns RF-48 (B-Cell Non-Hodgkin's Lymphoma). Described as above. In short, it runs like this: as §1
Assay [3] has as its system JVM-3 (B-Cell Non-Hodgkin's Lymphoma). Put plainly: combination Emax (second highest fraction inhibited in the dose matrix, 72 h); higher = more inhibition; extreme values may be limits of the assay. The gist of the method: as §1

With `Cc1c2c(nn1C)CSCc1cc(n(C)n1)CSc1cc(c3ccccc3c1)OCCCc1c(C(=O)O)n(C)c3c-2c(Cl)ccc13` [AZD5991] + C=CCn1c(=O)c2cnc(Nc3ccc(N4CCN(C)CC4)cc3)nc2n1-c1cccc(C(C)(C)O)n1 [AZD1775] (first compound max 1 µM, partner max 1 µM), the Bliss excess with EW-24 (Ewing's Sarcoma) was 0.0056; in assay [1], -0.0884; in assay [2], 0.0064. For the same compound, in assay [3], the “combination Emax” value is 0.92.
For `Cc1c2c(nn1C)CSCc1cc(n(C)n1)CSc1cc(c3ccccc3c1)OCCCc1c(C(=O)O)n(C)c3c-2c(Cl)ccc13` [AZD5991] + CC1(C)CCC(CN2CCN(c3ccc(C(=O)NS(=O)(=O)c4ccc(NCC5CCOCC5)c([N+](=O)[O-])c4)c(Oc4cnc5[nH]ccc5c4)c3)CC2)=C(c2ccc(Cl)cc2)C1 [Venetoclax] (first compound max 1 µM, 7x7, partner max 1 µM), in that order: -0.0224, 0.146, 0.12 and 0.764.
For `Cc1c2c(nn1C)CSCc1cc(n(C)n1)CSc1cc(c3ccccc3c1)OCCCc1c(C(=O)O)n(C)c3c-2c(Cl)ccc13` [AZD5991] + CCN(CCO)CCCOc1ccc2c(Nc3cc(CC(=O)Nc4cccc(F)c4)[nH]n3)ncnc2c1 [AZD2811] (first compound max 1 µM, 7x7, partner max 1 µM), in that order: -0.0172, 0.0892, 0.0211 and 0.486.
On the same counts, the results for `Cc1c2c(nn1C)CSCc1cc(n(C)n1)CSc1cc(c3ccccc3c1)OCCCc1c(C(=O)O)n(C)c3c-2c(Cl)ccc13` [AZD5991] + CN(C)CCCOc1ccc(-c2ccc3ncc4c(c3c2)n(C2CCOCC2)c(=O)n4C)cn1 [AZD0156] (first compound max 1 µM, 7x7, partner max 1 µM) are 0.0103, -0.0613, -0.0117 and 0.509.
Turning to `Cc1c2c(nn1C)CSCc1cc(n(C)n1)CSc1cc(c3ccccc3c1)OCCCc1c(C(=O)O)n(C)c3c-2c(Cl)ccc13` [AZD5991] + C[C@@H]1COCCN1C2=NC(=NC(=C2)C3(CC3)[S@](=N)(=O)C)C4=C5C=CNC5=NC=C4 [AZD6738] (first compound max 1 µM, 7x7, partner max 10 µM), the results for the Bliss excess (in the assay with EW-24 (Ewing's Sarcoma); in assay [1]; in assay [2]) were -0.0078, -0.0642 and -0.0062, respectively. In addition, the “combination Emax” value in assay [3] was 0.713.
For `Cc1c2c(nn1C)CSCc1cc(n(C)n1)CSc1cc(c3ccccc3c1)OCCCc1c(C(=O)O)n(C)c3c-2c(Cl)ccc13` [AZD5991] + C[C@@H](Nc1cc(F)cc(F)c1)c1cc(C(=O)N(C)C)cc2c(=O)cc(N3CCOCC3)oc12 [AZD8186] (first compound max 1 µM, 7x7, partner max 3 µM), in that order: -0.0426, -0.0119, -0.0401 and 0.44.
For `Cc1c2c(nn1C)CSCc1cc(n(C)n1)CSc1cc(c3ccccc3c1)OCCCc1c(C(=O)O)n(C)c3c-2c(Cl)ccc13` [AZD5991] + Cc1cc2ncnn2cc1Nc1ncc2c(n1)n(C1CCOCC1)c(=O)n2C [AZD7648] (first compound max 1 µM, 7x7, partner max 10 µM), the results for the Bliss excess (in the assay on EW-24 (Ewing's Sarcoma); in assay [1]; in assay [2]) were -0.035, -0.0539 and -0.0115, respectively. The “combination Emax” value in assay [3] came to 0.498.
For `Cc1c2c(nn1C)CSCc1cc(n(C)n1)CSc1cc(c3ccccc3c1)OCCCc1c(C(=O)O)n(C)c3c-2c(Cl)ccc13` [AZD5991] + Cn1cnc2c(F)c(Nc3ccc(Br)cc3Cl)c(C(=O)NOCCO)cc21 [Selumetinib] (first compound max 1 µM, 7x7, partner max 3 µM), in that order: -0.017, -0.0296, -0.0095 and 0.472.
On the same counts, the results for `C[C@@H]1COCCN1c1cc(C2([S@](C)(=N)=O)CC2)nc(-c2ccnc3[nH]ccc23)n1` [AZD6738] + O=C(c1cc(Cc2n[nH]c(=O)c3ccccc23)ccc1F)N1CCN(C(=O)C2CC2)CC1 [Olaparib] (first compound max 10 µM, 7x7, partner max 10 µM) are -0.0177, -0.0937, -0.0422 and 0.704.
For `COc1cccc2c1C(=O)c1c(O)c3c(c(O)c1C2=O)C[C@@](O)(C(=O)CO)C[C@@H]3O[C@H]1C[C@H](N)[C@H](O)[C@H](C)O1` [Doxorubicin] + Cc1cc2ncnn2cc1Nc1ncc2c(n1)n(C1CCOCC1)c(=O)n2C [AZD7648] (first compound max 1 µM, 7x7, partner max 10 µM), in that order: 0.0145, 0.0661, 0.021 and 0.978.
As for `COc1cccc(OCCCN)c1-c1cc(Nc2cnc(C#N)cn2)n[nH]1` [Prexasertib] + C=CCn1c(=O)c2cnc(Nc3ccc(N4CCN(C)CC4)cc3)nc2n1-c1cccc(C(C)(C)O)n1 [AZD1775] (first compound max 1 µM, partner max 1 µM), the Bliss excess is -0.1 with EW-24 (Ewing's Sarcoma), 0.0369 in assay [1] and 0.0178 in assay [2]. The “combination Emax” value in assay [3] came out at 0.973.
On the same counts, the results for `COc1cccc(OCCCN)c1-c1cc(Nc2cnc(C#N)cn2)n[nH]1` [Prexasertib] + CCc1c2c(nc3ccc(O)cc13)-c1cc3c(c(=O)n1C2)COC(=O)[C@]3(O)CC [SN-38] (first compound max 1 µM, 7x7, partner max 0.3 µM) are -0.0615, -0.0363, -0.0572 and 0.994.
Regarding `COc1cccc(OCCCN)c1-c1cc(Nc2cnc(C#N)cn2)n[nH]1` [Prexasertib] + CN(C)CCCOc1ccc(-c2ccc3ncc4c(c3c2)n(C2CCOCC2)c(=O)n4C)cn1 [AZD0156] (first compound max 1 µM, 7x7, partner max 1 µM), the Bliss excess in the assay with EW-24 (Ewing's Sarcoma) is -0.0082; in assay [1], -0.0097; in assay [2], 0.0213. In assay [3], the “combination Emax” value worked out at 0.985.
On the same counts, the results for `COc1cccc(OCCCN)c1-c1cc(Nc2cnc(C#N)cn2)n[nH]1` [Prexasertib] + C[C@@H]1COCCN1C2=NC(=NC(=C2)C3(CC3)[S@](=N)(=O)C)C4=C5C=CNC5=NC=C4 [AZD6738] (first compound max 1 µM, 7x7, partner max 10 µM) are -0.0522, -0.0351, -0.0175 and 0.966.
For `COc1cccc(OCCCN)c1-c1cc(Nc2cnc(C#N)cn2)n[nH]1` [Prexasertib] + Cc1cc2ncnn2cc1Nc1ncc2c(n1)n(C1CCOCC1)c(=O)n2C [AZD7648] (first compound max 1 µM, 7x7, partner max 10 µM), in that order: -0.0019, -0.027, -0.0549 and 0.981.
For `COc1cccc(OCCCN)c1-c1cc(Nc2cnc(C#N)cn2)n[nH]1` [Prexasertib] + O=C(c1cc(Cc2n[nH]c(=O)c3ccccc23)ccc1F)N1CCN(C(=O)C2CC2)CC1 [Olaparib] (first compound max 1 µM, 7x7, partner max 10 µM), in that order: -0.0292, -0.0314, -0.0216 and 0.986.
Consider `CCc1c2c(nc3ccc(O)cc13)-c1cc3c(c(=O)n1C2)COC(=O)[C@]3(O)CC` [SN-38] + CN(C)CCCOc1ccc(-c2ccc3ncc4c(c3c2)n(C2CCOCC2)c(=O)n4C)cn1 [AZD0156] (first compound max 0.3 µM, 7x7, partner max 1 µM), for which the Bliss excess is -0.0189 with EW-24 (Ewing's Sarcoma), -0.0309 in assay [1] and -0.0098 in assay [2]. The “combination Emax” value in assay [3] turned out to be 0.982.
For `CCc1c2c(nc3ccc(O)cc13)-c1cc3c(c(=O)n1C2)COC(=O)[C@]3(O)CC` [SN-38] + O=C(c1cc(Cc2n[nH]c(=O)c3ccccc23)ccc1F)N1CCN(C(=O)C2CC2)CC1 [Olaparib] (first compound max 0.3 µM, 7x7, partner max 10 µM), in that order: 0.0359, 0.0365, 0.0259 and 0.998.
On the same counts, the results for `CC(=O)Nc1cccc(-n2c(=O)n(C3CC3)c(=O)c3c(Nc4ccc(I)cc4F)n(C)c(=O)c(C)c32)c1` [Trametinib] + Cc1nc(-c2cn3c(n2)-c2ccc(-c4cnn(C(C)(C)C(N)=O)c4)cc2OCC3)n(C(C)C)n1 [Taselisib] (first compound max 1 µM, 7x7, partner max 10 µM) are 0.0141, -0.006, 0.0627 and 0.734.
Regarding `CC1(C)CCC(CN2CCN(c3ccc(C(=O)NS(=O)(=O)c4ccc(NCC5CCOCC5)c([N+](=O)[O-])c4)c(Oc4cnc5[nH]ccc5c4)c3)CC2)=C(c2ccc(Cl)cc2)C1` [Venetoclax] + C1CN(CCC1(C(=O)N[C@@H](CCO)C2=CC=C(C=C2)Cl)N)C3=NC=NC4=C3C=CN4 [Capivasertib] (first compound max 1 µM, 7x7, partner max 3 µM), the Bliss excess in the assay on EW-24 (Ewing's Sarcoma) is -0.0113; in assay [1], 0.0192; in assay [2], 0.0226. Moreover, the “combination Emax” value in assay [3] worked out at 0.636.
For `CC1(C)CCC(CN2CCN(c3ccc(C(=O)NS(=O)(=O)c4ccc(NCC5CCOCC5)c([N+](=O)[O-])c4)c(Oc4cnc5[nH]ccc5c4)c3)CC2)=C(c2ccc(Cl)cc2)C1` [Venetoclax] + C=CCn1c(=O)c2cnc(Nc3ccc(N4CCN(C)CC4)cc3)nc2n1-c1cccc(C(C)(C)O)n1 [AZD1775] (first compound max 1 µM, partner max 1 µM), in that order: 0.0351, -0.0521, 0.0016 and 0.953.
For the compound `CC1(C)CCC(CN2CCN(c3ccc(C(=O)NS(=O)(=O)c4ccc(NCC5CCOCC5)c([N+](=O)[O-])c4)c(Oc4cnc5[nH]ccc5c4)c3)CC2)=C(c2ccc(Cl)cc2)C1` [Venetoclax] + CCN(CCO)CCCOc1ccc2c(Nc3cc(CC(=O)Nc4cccc(F)c4)[nH]n3)ncnc2c1 [AZD2811] (first compound max 1 µM, 7x7, partner max 1 µM), the values for the Bliss excess (in the assay on EW-24 (Ewing's Sarcoma); in assay [1]; in assay [2]) were 0.0194, 0.162 and 0.0498, respectively. Also, the “combination Emax” value in assay [3] was determined as 0.653.
On to `CC1(C)CCC(CN2CCN(c3ccc(C(=O)NS(=O)(=O)c4ccc(NCC5CCOCC5)c([N+](=O)[O-])c4)c(Oc4cnc5[nH]ccc5c4)c3)CC2)=C(c2ccc(Cl)cc2)C1` [Venetoclax] + CN(C)CCCOc1ccc(-c2ccc3ncc4c(c3c2)n(C2CCOCC2)c(=O)n4C)cn1 [AZD0156] (first compound max 1 µM, 7x7, partner max 1 µM), for which the results for the Bliss excess (in the assay with EW-24 (Ewing's Sarcoma); in assay [1]; in assay [2]) were 0.0147, 0.0085 and -0.0109, respectively. Besides, the “combination Emax” value in assay [3] came to 0.673.
For `CC1(C)CCC(CN2CCN(c3ccc(C(=O)NS(=O)(=O)c4ccc(NCC5CCOCC5)c([N+](=O)[O-])c4)c(Oc4cnc5[nH]ccc5c4)c3)CC2)=C(c2ccc(Cl)cc2)C1` [Venetoclax] + COc1cc(Nc2ncc3c(n2)-c2ccc(Cl)cc2C(c2c(F)cccc2OC)=NC3)ccc1C(=O)O [Alisertib] (first compound max 1 µM, 7x7, partner max 10 µM), in that order: 0.0205, 0.215, 0.194 and 0.823.
On to `CC1(C)CCC(CN2CCN(c3ccc(C(=O)NS(=O)(=O)c4ccc(NCC5CCOCC5)c([N+](=O)[O-])c4)c(Oc4cnc5[nH]ccc5c4)c3)CC2)=C(c2ccc(Cl)cc2)C1` [Venetoclax] + C[C@@H]1COCCN1C2=NC(=NC(=C2)C3(CC3)[S@](=N)(=O)C)C4=C5C=CNC5=NC=C4 [AZD6738] (first compound max 1 µM, 7x7, partner max 10 µM), for which the Bliss excess in the assay on EW-24 (Ewing's Sarcoma) was 0.0218; in assay [1], 0.0106; in assay [2], -0.0039. For the same compound, the “combination Emax” value in assay [3] turned out to be 0.9.
